According to paper PMC8160793, “Potent Antimicrobial and Antibiofilm Activities of Feleucin-K3 Analogs Modified by α-(4-Pentenyl)-Ala against Multidrug-Resistant Bacteria” (Biomolecules, 2021):
Values after ≈ are worked out from the molar mass of the structure shown. Square brackets hold non-standard residues; d marks the D form. Ends that are not written are not given here. Peptide text beside a SMILES is read from it. ξ: configuration not given here. ξαMeGly(pent-4-enyl) = C=CCCCC(C)(N)C(=O)O

Key:
P. aeruginosa ATCC 27853 = format: cell-based, Pseudomonas aeruginosa; settings: ATCC 27853, 18 h
Procedure: (§1) The minimum inhibitory concentration (MIC) of the Feleucin-K3 analogs was tested by the broth microdilution method. Sensitive bacteria and drug-resistant bacteria were diluted to 1 × 10^6 CFU/mL, according to the McFarland standards. Bacterial suspension and peptide solutions (8–128 μg/mL) were incubated at 37 °C for 18 h. The minimum concentration without obvious bacterial growth was the MIC of the peptides. The stability of the analogs in a physiological salt environment was also investigated. In brief, salt powder (450-mM NaCl) was dissolved in deionized water, and the following investigational steps were the same as those described before. The above steps were repeated several times, until the same value was obtained three times.

E. coli ATCC 25922 = format: cell-based; settings: ATCC 25922, 18 h
Procedure: as §1

S. aureus 725 = format: cell-based, Staphylococcus aureus; settings: 725, 18 h
Procedure: as §1

MRSA 52 = format: cell-based, Staphylococcus aureus; settings: 52, 18 h
Procedure: as §1

MRSA 54 = format: cell-based, Staphylococcus aureus; settings: 54, 18 h
Procedure: as §1

MRSA 113 = format: cell-based, Staphylococcus aureus; settings: 113, 18 h
Procedure: as §1

MRSA 936 = format: cell-based, Staphylococcus aureus; settings: 936, 18 h
Procedure: as §1

MRSA ATCC 33591 = format: cell-based, Staphylococcus aureus; settings: ATCC 33591, 18 h
Procedure: as §1

S. aureus ATCC 25923 = format: cell-based, Staphylococcus aureus; settings: ATCC 25923, 18 h
Procedure: as §1

MRSA 71 = format: cell-based, Staphylococcus aureus; settings: 71, 18 h
Procedure: as §1

MRSA 75 = format: cell-based, Staphylococcus aureus; settings: 75, 18 h
Procedure: as §1

S. aureus 794 = format: cell-based, Staphylococcus aureus; settings: 794, 18 h
Procedure: as §1

MRSA 74 = format: cell-based, Staphylococcus aureus; settings: 74, 18 h
Procedure: as §1

MRSA 51 = format: cell-based, Staphylococcus aureus; settings: 51, 18 h
Procedure: as §1

MRSA 48 = format: cell-based, Staphylococcus aureus; settings: 48, 18 h
Procedure: as §1

MRSA 23 = format: cell-based, Staphylococcus aureus; settings: 23, 18 h
Procedure: as §1

A. baumannii 9896 = format: cell-based, Acinetobacter baumannii; settings: 9896, 18 h
Procedure: as §1

A. baumannii 822144 = format: cell-based, Acinetobacter baumannii; settings: 822144, 18 h
Procedure: as §1

A. baumannii 91199 = format: cell-based, Acinetobacter baumannii; settings: 91199, 18 h
Procedure: as §1

A. baumannii ATCC 19606 = format: cell-based, Acinetobacter baumannii; settings: ATCC 19606, 18 h
Procedure: as §1

A. baumannii 92359 = format: cell-based, Acinetobacter baumannii; settings: 92359, 18 h
Procedure: as §1

A. baumannii 91810 = format: cell-based, Acinetobacter baumannii; settings: 91810, 18 h
Procedure: as §1

A. baumannii 51243 = format: cell-based, Acinetobacter baumannii; settings: 51243, 18 h
Procedure: as §1

A. baumannii 9234 = format: cell-based, Acinetobacter baumannii; settings: 9234, 18 h
Procedure: as §1

A. baumannii 9840 = format: cell-based, Acinetobacter baumannii; settings: 9840, 18 h
Procedure: as §1

A. baumannii 8309 = format: cell-based, Acinetobacter baumannii; settings: 8309, 18 h
Procedure: as §1

A. baumannii 9828 = format: cell-based, Acinetobacter baumannii; settings: 9828, 18 h
Procedure: as §1

A. baumannii 5444 = format: cell-based, Acinetobacter baumannii; settings: 5444, 18 h
Procedure: as §1

A. baumannii 91869 = format: cell-based, Acinetobacter baumannii; settings: 91869, 18 h
Procedure: as §1

A. baumannii 9331 = format: cell-based, Acinetobacter baumannii; settings: 9331, 18 h
Procedure: as §1

A. baumannii 91105 = format: cell-based, Acinetobacter baumannii; settings: 91105, 18 h
Procedure: as §1

A. baumannii 98110 = format: cell-based, Acinetobacter baumannii; settings: 98110, 18 h
Procedure: as §1

A. baumannii 9336 = format: cell-based, Acinetobacter baumannii; settings: 9336, 18 h
Procedure: as §1

A. baumannii 97830 = format: cell-based, Acinetobacter baumannii; settings: 97830, 18 h
Procedure: as §1

A. baumannii 9236 = format: cell-based, Acinetobacter baumannii; settings: 9236, 18 h
Procedure: as §1

A. baumannii 91944 = format: cell-based, Acinetobacter baumannii; settings: 91944, 18 h
Procedure: as §1

A. baumannii 91152 = format: cell-based, Acinetobacter baumannii; settings: 91152, 18 h
Procedure: as §1

[1] = tested on: multidrug-resistant A. baumannii; parameters: method as in PMID 32590058; settings: previous studies; cited from earlier work
A. baumannii = assay: Resistance development assay, sequential passaging; format: cell-based, Acinetobacter baumannii; settings: serial passage at sub-MIC, 20 passages
Procedure: Serial passage and MIC determination were used to explore whether the bacteria developed drug resistance. On the first day, the MICs of the peptides were determined as described above. The next day, the bacterial suspension of sub-MIC concentration was cultivated to the mid-log phase. The MICs of the peptides were detected again, and this process was repeated for 20 days. The MICs of the antibiotics, including amoxicillin (AML), ceftazidime (CAZ) and imipenem, were also determined as controls.

mouse RBCs = settings: cited from earlier work
Description: The hemolysis rates of K70 were less than 1%, even at the maximum c ...

| Compound | MIC, S. aureus 725 (S. aureus 725) [µg/mL] | MIC, MRSA 52 (MRSA 52) [µg/mL] | MIC, MRSA 54 (MRSA 54) [µg/mL] | MIC, MRSA 113 (MRSA 113) [µg/mL] | MIC, MRSA 936 (MRSA 936) [µg/mL] | MIC, MRSA ATCC 33591 (MRSA ATCC 33591) [µg/mL] | MIC, MRSA 71 (MRSA 71) [µg/mL] | MIC, MRSA 75 (MRSA 75) [µg/mL] | MIC, S. aureus 794 (S. aureus 794) [µg/mL] | MIC, MRSA 74 (MRSA 74) [µg/mL] | MIC, MRSA 51 (MRSA 51) [µg/mL] | MIC, MRSA 48 (MRSA 48) [µg/mL] | MIC, MRSA 23 (MRSA 23) [µg/mL] | MIC, A. baumannii 9896 (A. baumannii 9896) [µg/mL] | MIC, A. baumannii 822144 (A. baumannii 822144) [µg/mL] | MIC, A. baumannii 91199 (A. baumannii 91199) [µg/mL] | MIC, A. baumannii 92359 (A. baumannii 92359) [µg/mL] | MIC, A. baumannii 91810 (A. baumannii 91810) [µg/mL] | MIC, A. baumannii 51243 (A. baumannii 51243) [µg/mL] | MIC, A. baumannii 9234 (A. baumannii 9234) [µg/mL] | further results |
| --- | --- | --- | --- | --- | --- | --- | --- | --- | --- | --- | --- | --- | --- | --- | --- | --- | --- | --- | --- | --- | --- |
| C=CCCCC(C)(NC(=O)[C@H](CC(C)C)NC(=O)[C@H](CC(C)C)NC(=O)[C@H](CCCCN)NC(=O)[C@H](CC(C)C)NC(=O)[C@@H](N)Cc1ccccc1)C(=O)N[C@@H](CCCCN)C(=O)N[C@@H](CC(C)C)C(=O)N[C@@H](CC(C)C)C(N)=O (stereo partly shown) [Feleucin-K71] (H-FLKLL[ξαMeGly(pent-4-enyl)]KLL-NH2) | 4 (≈ 3.55 µM) | 4 (≈ 3.55 µM) | 4 (≈ 3.55 µM) | 4 (≈ 3.55 µM) | 4 (≈ 3.55 µM) | 4 (≈ 3.55 µM) | 4 (≈ 3.55 µM) | 4 (≈ 3.55 µM) | 16 (≈ 14.2 µM) | 4 (≈ 3.55 µM) | 4 (≈ 3.55 µM) | 4 (≈ 3.55 µM) | 4 (≈ 3.55 µM) | 8 (≈ 7.11 µM) | 16 (≈ 14.2 µM) | 16 (≈ 14.2 µM) | 16 (≈ 14.2 µM) | 16 (≈ 14.2 µM) | 32 (≈ 28.4 µM) | 8 (≈ 7.11 µM) | MIC, P. aeruginosa ATCC 27853 (P. aeruginosa ATCC 27853): 8 µg/mL (≈ 7.11 µM); MIC, E. coli ATCC 25922 (E. coli ATCC 25922): 16 µg/mL (≈ 14.2 µM); MIC, S. aureus ATCC 25923 (S. aureus ATCC 25923): 4 µg/mL (≈ 3.55 µM); MIC, A. baumannii ATCC 19606 (A. baumannii ATCC 19606): 4 µg/mL (≈ 3.55 µM); MIC, A. baumannii 9840 (A. baumannii 9840): 8 µg/mL (≈ 7.11 µM); MIC, A. baumannii 8309 (A. baumannii 8309): 8 µg/mL (≈ 7.11 µM); MIC, A. baumannii 9828 (A. baumannii 9828): 16 µg/mL (≈ 14.2 µM); MIC, A. baumannii 5444 (A. baumannii 5444): 8 µg/mL (≈ 7.11 µM); MIC, A. baumannii 91869 (A. baumannii 91869): 8 µg/mL (≈ 7.11 µM); MIC, A. baumannii 9331 (A. baumannii 9331): 64 µg/mL (≈ 56.9 µM); MIC, A. baumannii 91105 (A. baumannii 91105): 8 µg/mL (≈ 7.11 µM); MIC, A. baumannii 98110 (A. baumannii 98110): 16 µg/mL (≈ 14.2 µM); MIC, A. baumannii 9336 (A. baumannii 9336): 8 µg/mL (≈ 7.11 µM); MIC, A. baumannii 97830 (A. baumannii 97830): 32 µg/mL (≈ 28.4 µM); MIC, A. baumannii 9236 (A. baumannii 9236): 16 µg/mL (≈ 14.2 µM); MIC, A. baumannii 91944 (A. baumannii 91944): 16 µg/mL (≈ 14.2 µM); MIC, A. baumannii 91152 (A. baumannii 91152): 16 µg/mL (≈ 14.2 µM) |
| C[C@@H](O)[C@H]1C(=O)N2C(C(=O)O)=C(SCCN=CN)C[C@H]12 [imipenem] | – | – | – | – | – | – | – | – | – | – | – | – | – | – | – | – | – | – | – | – | MIC against multidrug-resistant A. baumannii [1]: ≤ 64 µg/mL; maximum fold increase of MIC, A. baumannii (A. baumannii): ≤ 16 fold |
| FLKLLKKLL-NH2 [Feleucin-K3] | 8 | 8 | 8 | 8 | 8 | 8 | 8 | 8 | 16 | 8 | 8 | 8 | 8 | 8 | 8 | 8 | 8 | 8 | 8 | 8 | hemolytic rate at 256 µg/mL (mouse RBCs): more than 40%; MIC, A. baumannii 9840 (A. baumannii 9840): 8 µg/mL; MIC, A. baumannii 8309 (A. baumannii 8309): 8 µg/mL; MIC, A. baumannii 9828 (A. baumannii 9828): 16 µg/mL; MIC, A. baumannii 5444 (A. baumannii 5444): 8 µg/mL; MIC, A. baumannii 91869 (A. baumannii 91869): 8 µg/mL; MIC, A. baumannii 9331 (A. baumannii 9331): 16 µg/mL; MIC, A. baumannii 91105 (A. baumannii 91105): 8 µg/mL; MIC, A. baumannii 98110 (A. baumannii 98110): 8 µg/mL; MIC, A. baumannii 9336 (A. baumannii 9336): 8 µg/mL; MIC, A. baumannii 97830 (A. baumannii 97830): 8 µg/mL; MIC, A. baumannii 9236 (A. baumannii 9236): 16 µg/mL; MIC, A. baumannii 91944 (A. baumannii 91944): 8 µg/mL; MIC, A. baumannii 91152 (A. baumannii 91152): 8 µg/mL |
